Drawing on US3983105A, “Penicillins” (Bayer Aktiengesellschaft, priority 1971, dated 1976), this text covers MIC for 16 molecules.

Format in all cases: cell-based
In assay [1] the test system is Proteus morganii. In words: MIC, test tube serial dilution, Proteus morganii. Conditions: unit assumed.
In assay [2] the test system is Klebsiella-Aerobacter. Put plainly: MIC, test tube serial dilution, Klebsiella-Aerobacter.
In assay [3] the test system is Escherichia coli. Put plainly: MIC, test tube serial dilution, Escherichia coli.
Assay [4] relates to Streptococcus faecalis. In words: MIC, test tube serial dilution, Streptococcus faecalis.
The test system of assay [5] is Pseudomonas aeruginosa. Put plainly: MIC, test tube serial dilution, Pseudomonas aeruginosa.
Assay [6] has as its system Staphylococcus aureus. Put plainly: MIC, test tube serial dilution, Staphylococcus aureus.
The test system of assay [7] is Proteus vulgaris. Put plainly: MIC, test tube serial dilution, Proteus vulgaris.
Setting [8] is: strain 1756 (BRL 1 756), 24 hours, 37°C.

Where “and” joins values, the source holds several entries; their conditions need not be identical. Equal entries are not always repeated.

On to `CC1(C)S[C@@H]2[C@H](NC(=O)[C@H](NC(=O)N3CCN(C(N)=O)C3=O)c3ccccc3)C(=O)N2[C@H]1C(=O)O` [Example 5, Sodium D(-)-α-[(3-aminocarbonyl-imidazolidin-2-on-1-yl)-carbonylamino]-benzylpenicillin], for which the MIC in assay [1] was found to be 32 µg/mL; in assay [2] (in µg/mL (unit assumed)), 32; in assay [2] (strain 63, 24 hours, 37°C), 16 U/ml; in assay [3] (strain 183/58, 24 hours, 37°C), 4 U/ml; in assay [3] (strain A 261, 24 hours, 37°C) it was 256 U/ml; in assay [4] (unit assumed), 32 µg/mL. Moreover, the MIC in assay [5] (in µg/mL (unit assumed)) was 32; in assay [6] (setting [8]), over 256 U/ml.

`CC(C)OC(=O)N1CCN(C(=O)N[C@@H](C(=O)N[C@@H]2C(=O)N3[C@@H]2SC(C)(C)[C@@H]3C(=O)O)c2ccccc2)C1=O` [Example 7, Sodium D(-)-α-[(3-i-propyloxycarbonyl-imidazolidin-2-on-1-yl)-carbonylamino]-benzylpenicillin]: the MIC is reported as 16 U/ml in assay [7] (strain 1017, 24 hours, 37°C); under 1 U/ml in assay [3] (strain 183/58, 24 hours, 37°C); over 256 U/ml in assay [3] (strain A 261, 24 hours, 37°C); 16 U/ml in assay [4] (ATCC 9790, 24 hours, 37°C); 8 in assay [5] (in µg/mL (unit assumed)); 16 U/ml in assay [5] (strain Bonn, 24 hours, 37°C). Further, in assay [6] (setting [8]), the MIC amounted to 128 U/ml.

Consider `CC1(C)S[C@@H]2[C@H](NC(=O)[C@H](NC(=O)N3CCN(C(=O)Nc4ccccc4)C3=O)c3ccccc3)C(=O)N2[C@H]1C(=O)O` [Example 10, Sodium D(-)-α-[(3-phenylaminocarbonyl-imidazolidin-2-on-1-yl)-carbonylamino]-benzylpenicillin], for which the MIC is 8 in assay [2] (in µg/mL (unit assumed)); 8 µg/mL in assay [7] (unit assumed); 4 U/ml in assay [3] (strain 183/58, 24 hours, 37°C); over 256 U/ml in assay [3] (strain A 261, 24 hours, 37°C); 128 µg/mL in assay [4] (unit assumed); 64 U/ml in assay [5] (strain Bonn, 24 hours, 37°C). The MIC is reported as 256 U/ml in assay [5] (strain Walter, 24 hours, 37°C) and over 256 U/ml in assay [6] (setting [8]).

In the case of `CC1(C)S[C@@H]2[C@H](NC(=O)[C@H](NC(=O)N3CCN(C(=O)Oc4ccccc4)C3=O)c3ccccc3)C(=O)N2[C@H]1C(=O)O` [Example 11, Sodium D(-)-α-[(3-phenoxycarbonyl-imidazolidin-2-on-1-yl)-carbonylamino]-benzylpenicillin], the MIC in assay [1] is 8 µg/mL; in assay [2] (in µg/mL (unit assumed)), 4; in assay [7] (unit assumed) it was 16 µg/mL; in assay [4] (unit assumed), 16 µg/mL; in assay [5] (in µg/mL (unit assumed)), 32 and 16.

For `CC1(C)S[C@@H]2[C@H](NC(=O)[C@H](NC(=O)N3CCN(C(=O)c4ccccc4)C3=O)c3ccccc3)C(=O)N2[C@H]1C(=O)O` [Example 12, Sodium D(-)-α-[(3-benzoyl-imidazolidin-2-on-1-yl)-carbonylamino]-benzylpenicillin], the MIC in assay [1] is 8 µg/mL; in assay [2] (in µg/mL (unit assumed)), 8; in assay [3] (strain 183/58, 24 hours, 37°C) it was under 1 U/ml; in assay [3] (strain A 261, 24 hours, 37°C), 64 U/ml; in assay [4] (unit assumed), 32 µg/mL; in assay [5] (in µg/mL (unit assumed)) it was 32. The molecule also registered an MIC in assay [6] (setting [8]) of 256 U/ml.

Turning to `CC1(C)S[C@@H]2[C@H](NC(=O)[C@H](NC(=O)N3CCN(C(=O)c4ccco4)C3=O)c3ccccc3)C(=O)N2[C@H]1C(=O)O` [Example 13, Sodium D(-)-α-[(3-furoyl(2)-imidazolidin-2-on-1-yl)-carbonylamino]-benzylpenicillin], the MIC in assay [2] (in µg/mL (unit assumed)) is on record as 8; in assay [3] (strain 183/58, 24 hours, 37°C) it was under 1 U/ml; in assay [4] (ATCC 9790, 24 hours, 37°C), 16 U/ml; in assay [5] (strain F 41, 24 hours, 37°C) it was 16 U/ml; in assay [5] (strain Walter, 24 hours, 37°C) it was 16 U/ml; in assay [6] (setting [8]), 128 U/ml.

Consider `CCCC(=O)N1CCN(C(=O)N[C@@H](C(=O)N[C@@H]2C(=O)N3[C@@H]2SC(C)(C)[C@@H]3C(=O)O)c2ccccc2)C1=O` [Example 14, Sodium D(-)-α-[(3-n-butyryl-imidazolidin-2-on-1-yl)-carbonylamino]-benzylpenicillin], for which the MIC in assay [3] (strain 183/58, 24 hours, 37°C) was under 1 U/ml; in assay [4] (unit assumed), 32 µg/mL; in assay [5] (in µg/mL (unit assumed)) it was 32; in assay [6] (setting [8]) it was 128 U/ml.

For `CC1(C)S[C@@H]2[C@H](NC(=O)[C@H](NC(=O)N3CCN=C3NS(C)(=O)=O)c3ccccc3)C(=O)N2[C@H]1C(=O)O` [Example 19, Sodium D(-)-α-[(2-methylsulphonylamino-imidazolin(2)-1-yl)-carbonylamino]-benzylpenicillin], the MIC stood at 32 µg/mL in assay [1]; 16 U/ml in assay [7] (strain 1017, 24 hours, 37°C); 16 µg/mL in assay [7] (unit assumed); 16 U/ml in assay [3] (strain 183/58, 24 hours, 37°C).

On to `CC(C)(C)C(=O)N1CCN(C(=O)N[C@@H](C(=O)N[C@@H]2C(=O)N3[C@@H]2SC(C)(C)[C@@H]3C(=O)O)c2ccccc2)C1=O` [Example 21, Sodium D(-)-α-[(3-pivaloyl-imidazolidin-2-on-1-yl)-carbonylamino]-benzylpenicillin], for which the MIC is recorded as 8 in assay [2] (in µg/mL (unit assumed)); under 1 U/ml in assay [3] (strain 183/58, 24 hours, 37°C); 256 U/ml in assay [3] (strain A 261, 24 hours, 37°C); 64 U/ml in assay [4] (ATCC 9790, 24 hours, 37°C); 32 in assay [5] (in µg/mL (unit assumed)); 256 U/ml in assay [6] (setting [8]).

With `CC1(C)S[C@@H]2[C@H](NC(=O)[C@H](NC(=O)N3CCN(C(=O)OC4CCCCC4)C3=O)c3ccccc3)C(=O)N2[C@H]1C(=O)O` [Example 23, Sodium D(-)-α-[(3-cyclohexyloxycarbonyl-imidazolidin-2-on-1-yl)-carbonylamino]-benzylpenicillin], the MIC in assay [2] (in µg/mL (unit assumed)) is 8; in assay [3] (strain 183/58, 24 hours, 37°C), under 1 U/ml; in assay [4] (unit assumed) it was 32 µg/mL; in assay [5] (in µg/mL (unit assumed)), 32; in assay [5] (strain Bonn, 24 hours, 37°C), 16 U/ml; in assay [6] (setting [8]), 64 U/ml.

In the case of `Cc1ccc(S(=O)(=O)NC2=NCCN2C(=O)N[C@@H](C(=O)N[C@@H]2C(=O)N3[C@@H]2SC(C)(C)[C@@H]3C(=O)O)c2ccccc2)cc1` [Example 25, Sodium D(-)-α-[(2-tosylamino-imidazolin(2)-1-yl)-carbonylamino]-benzylpenicillin], the MIC in assay [2] (strain 63, 24 hours, 37°C) was 64 U/ml; in assay [2] (strain K 10, 24 hours, 37°C), 64 U/ml; in assay [7] (strain 1017, 24 hours, 37°C), 16 U/ml; in assay [3] (strain 183/58, 24 hours, 37°C), 32 U/ml; in assay [3] (strain A 261, 24 hours, 37°C), over 256 U/ml; in assay [3] (strain C 165, 24 hours, 37°C), 16 U/ml. The MIC is recorded as 16 U/ml in assay [4] (ATCC 9790, 24 hours, 37°C); 32 in assay [5] (in µg/mL (unit assumed)); 64 U/ml in assay [5] (strain Bonn, 24 hours, 37°C); 64 U/ml in assay [6] (setting [8]).

As to `CCC(=O)N1CCN(C(=O)N[C@@H](C(=O)N[C@@H]2C(=O)N3[C@@H]2SC(C)(C)[C@@H]3C(=O)O)c2ccccc2)C1=O` [Example 26, Sodium D(- )-α-[(2-oxo-3-propionyl-1-imidazolidinyl)-carbonylamino]-benzylpenicillin], the MIC in assay [2] (in µg/mL (unit assumed)) was 32; in assay [2] (strain 63, 24 hours, 37°C), 16 U/ml; in assay [3] (strain 183/58, 24 hours, 37°C), 4 U/ml; in assay [3] (strain A 261, 24 hours, 37°C), over 256 U/ml; in assay [4] (unit assumed), 8 µg/mL; in assay [5] (in µg/mL (unit assumed)), 32. In addition, the MIC in assay [5] (strain Walter, 24 hours, 37°C) is on record as 64 U/ml; in assay [6] (setting [8]) it was 64 U/ml.

Regarding `CC1(C)S[C@@H]2[C@H](NC(=O)[C@H](NC(=O)N3CCN(S(=O)(=O)c4ccccc4)C3=O)c3ccccc3)C(=O)N2[C@H]1C(=O)O` [Example 27, Sodium D(-)-α-[(2-oxo-3-benzenesulphonyl-1-imidazolidinyl)-carbonylamino]-benzylpenicillin], the MIC in assay [3] (strain 183/58, 24 hours, 37°C) is 0.5 U/ml; in assay [3] (strain A 261, 24 hours, 37°C) it was over 256 U/ml; in assay [5] (in µg/mL (unit assumed)), 32; in assay [6] (setting [8]), 64 U/ml.

`CC1(C)S[C@@H]2[C@H](NC(=O)[C@H](NC(=O)N3CCN(C(=O)NS(C)(=O)=O)C3=O)c3ccccc3)C(=O)N2[C@H]1C(=O)O` [Example 30, Sodium D(-)-α-[3-(methylsulphonyl-amino-carbonyl)-imidazolidinon-2-yl-1]-carbonylamino-benzylpenicillin]: the MIC in assay [1] is 8 µg/mL; in assay [2] (in µg/mL (unit assumed)), 128; in assay [2] (strain 63, 24 hours, 37°C), 64 U/ml; in assay [3] (strain 183/58, 24 hours, 37°C) it was 64 U/ml; in assay [3] (strain A 261, 24 hours, 37°C), over 256 U/ml; in assay [4] (unit assumed), 128 µg/mL. For the same molecule, the results for the MIC in assay [5] (in µg/mL (unit assumed)) and in assay [6] (setting [8]) were 32 and 256 U/ml, respectively.

On to `CC1(C)S[C@@H]2[C@H](NC(=O)[C@H](NC(=O)N3CCN(S(C)(=O)=O)C3=O)c3ccccc3)C(=O)N2[C@H]1C(=O)O` [Penicillin No. 1 (Table 3), Sodium D(-)-α-[(3-methylsulphonyl-imidazolidin-2-on-1-yl)-carbonylamino]-benzylpenicillin], for which the MIC in assay [2] (Table 3, strain 63) was 12.5 U/ml; in assay [2] (Table 3, strain K 10), 6.2 U/ml; in assay [7] (Table 3, strain 1017), 3.1 U/ml; in assay [3] (Table 3, strain 14), under 0.8 U/ml; in assay [3] (Table 3, strain 183/58) it was 1.6 U/ml; in assay [3] (Table 3, strain A 261) it was 200 U/ml. In addition, the MIC in assay [4] (Table 3, ATCC 9790) is 25 U/ml; in assay [5] (Table 3, strain F 41) it was 50 U/ml; in assay [5] (Table 3, strain Walter), 50 U/ml; in assay [6] (Table 3, strain 133), under 0.8 U/ml; in assay [6] (Table 3, strain 1756E), 400 U/ml.

With “Sodium D(-)-α-[(3-methylsulphonyl-4- or 5-methyl-imidazolidin-2-on-1-yl)-carbonylamino]-benzylpenicillin [Example 32]”, the MIC was 8 µg/mL in assay [1]; 32 and 16 in assay [2] (in µg/mL (unit assumed)); 8 µg/mL in assay [7] (unit assumed); 16 µg/mL in assay [4] (unit assumed); 256 and 128 in assay [5] (in µg/mL (unit assumed)).
